Test results reported in patent US8445490B2, “Compounds for the treatment of hepatitis C” (priority 2009, dated 2013).
Read-outs that look alike come from different tables or passages of the source.

Tested on: HCV pseudoparticles, genotype 1a (H77C) E1 and E2 envelope
Experiment: microbe, parasite or virus in culture
Format: cell-based, HCV genotype 1a (H77C isolate)
Settings: Hepatitis C virus, Huh-7, 48 h, HCV pseudoparticles 1a (H77C), Huh7 cells, luciferase 2 days after infection
[1] = read-out: EC50 (nM) 1a (H77C), Table 1b, class
[2] = read-out: EC50 (nM) 1a (H77C), Table 1a, class
[3] = read-out: EC50 (nM) 1a (H77C), Table 1b
[4] = read-out: EC50 (nM) 1a (H77C), Table 1a

Row | SMILES | EC50 [1] | EC50 [2] | other results
1 | O=C1NCCCCNCCCNc2nc(nc(OCC(F)(F)F)n2)Nc2ccc1cc2 [Example 7001] | 1000 to 5000 nM | – | –
2 | CCCN1CCCOc2ccc(cc2)CNc2nc(nc(OCC(F)(F)F)n2)Nc2ccc(cc2)C(=O)NCC(C)(C)C1 [Example 6039] | 0.1 to 100 nM | – | –
3 | CC(C)(C)OC(=O)N1CCN(CC2CNC(=O)c3ccc(cc3)Nc3nc(nc(OCC(F)(F)F)n3)NCc3ccc(cc3)OC/C=C/CO2)CC1 (stereo not shown) [Example 0009] | – | 100 to 1000 nM | –
4 | O=C1NCCCCCNCCNc2nc(nc(OCC(F)(F)F)n2)Nc2ccc1cc2 [Example 8002] | 1000 to 5000 nM | – | EC50 [3]: > 50000 nM
5 | O=C1NCCCCCCCCCCNc2nc(nc(OCC(F)(F)F)n2)Nc2ccc1cc2 [Example 0003] | – | 100 to 1000 nM | EC50 [4]: 101 nM
6 | CCC(=O)N1CCCCNC(=O)c2ccc(cc2)Nc2nc(nc(OCC(F)(F)F)n2)NC2(CC2)c2ccc(cc2)OCCC1 [Example 5005] | 0.1 to 100 nM | – | –
7 | O=C1CCNC(=O)c2ccc(cc2)Nc2nc(nc(OCC(F)(F)F)n2)NCc2ccc(cc2)OC/C=C\CS(=O)(=O)N1 [Example 3009] | – | 100 to 1000 nM | –
8 | O=C1NCCCOCCOCCOCCCNC(=O)c2ccc(cc2)Nc2nc(nc(OCC(F)(F)F)n2)NCc2ccc1cc2 [Example 0036] | – | 1000 to 5000 nM | –
9 | O=C1CCCCCCCCC(=O)NCc2ccc(cc2)Nc2nc(nc(OCC(F)(F)F)n2)NCc2ccc(cc2)CN1 [Example 0064] | – | 100 to 1000 nM | EC50 [4]: 407 nM
10 | CC(C)NC(=O)N1CCCOc2ccc(cc2)CNc2nc(nc(OCC(F)(F)F)n2)Nc2ccc(cc2)C(=O)NCC1 [Example 6003] | 0.1 to 100 nM | – | –
11 | CC(C)C(=O)N1CCCOc2ccc(cc2)CNc2nc(nc(OCC(F)(F)F)n2)Nc2ccc(cc2)C(=O)NCC1 [Example 6008] | 0.1 to 100 nM | – | –
12 | CC(C)(C)OC(=O)N1CCCCCCCCNc2nc(nc(OCC(F)(F)F)n2)Nc2ccc(cc2)C(=O)NCCC1 [Example 9002] | 0.1 to 100 nM | – | –
13 | O=C1NS(=O)(=O)C/C=C/CCCCOc2ccc(cc2)CNc2nc(nc(OCC(F)(F)F)n2)Nc2ccc1cc2 [Example 3006] | – | 1000 to 5000 nM | –
14 | CCC(=O)N1CCCOc2ccc(cc2)CNc2nc(nc(OCC(F)(F)F)n2)Nc2ccc(cc2)C(=O)NCC1 [Example 6007] | 0.1 to 100 nM | – | –
15 | CCOC(=O)N1CCCNC(=O)c2ccc(cc2)Nc2nc(nc(OCC(F)(F)F)n2)NC2(CC2)c2ccc(cc2)OCCC1 [Example 5002] | 0.1 to 100 nM | – | –
16 | O=C1NCCCCCCCCCCCNC(=O)c2ccc(cc2)Nc2nc(nc(OCC(F)(F)F)n2)NCc2ccc1cc2 [Example 0038] | – | 100 to 1000 nM | EC50 [4]: 840 nM
17 | CN(C)C(N1C[C@@H]2NC(=O)c3ccc(cc3)Nc3nc(nc(OCC(F)(F)F)n3)NCc3ccc(cc3)OCCCCCCNC(=O)[C@H]2C1)=[N+](C)C [Example 0008] | – | 0.1 to 100 nM | –
18 | O=C1NCCNCCNc2nc(nc(OCC(F)(F)F)n2)Nc2ccc1cc2 [Example 0001] | – | 1000 to 5000 nM | EC50 [4]: 4200 nM

Row | SMILES | EC50 [1] | EC50 [2] | other results
19 | O=C1NCCCNCCCCCCCCNc2nc(nc(OCC(F)(F)F)n2)Nc2ccc1cc2 [Example 9001] | 100 to 1000 nM | – | EC50 [3]: 243 nM
20 | O=C1NCCCOCCCCOCCCNc2nc(nc(OCC(F)(F)F)n2)Nc2ccc1cc2 [Example 0004] | – | 0.1 to 100 nM | EC50 [4]: 48.4 nM
21 | CC(=O)N1CCNC(=O)c2ccc(cc2)Nc2nc(nc(OCC(F)(F)F)n2)NCC1 [Example 0005] | – | 1000 to 5000 nM | –
22 | O=C1NCCCCNC(=O)C2(CC2)Nc2nc(nc(OCC(F)(F)F)n2)Nc2ccc1cc2 [Example 0006] | – | 1000 to 5000 nM | –
23 | O=C1NCC(CN2CCNCC2)OC/C=C/COc2ccc(cc2)CNc2nc(nc(OCC(F)(F)F)n2)Nc2ccc1cc2 (stereo not shown) [Example 0010] | – | 1000 to 5000 nM | –
24 | O=C1NCCCCCCCCCCCCNC(=O)c2ccc(cc2)Nc2nc(nc(OCC(F)(F)F)n2)NCc2ccc1cc2 [Example 0034] | – | 1000 to 5000 nM | –
25 | O=C1NS(=O)(=O)C/C=C/CCOc2ccc(cc2)CNc2nc(nc(OCC(F)(F)F)n2)Nc2ccc1cc2 [Example 3004] | – | 1000 to 5000 nM | EC50 [4]: 2940 nM
26 | O=C1NCCCCCCCCNc2nc(nc(OCC(F)(F)F)n2)Nc2ccc1cc2 [Example 0002] | – | 0.1 to 100 nM | –
27 | CCOC(=O)N1CCCOc2ccc(cc2)CNc2nc(nc(OCC(F)(F)F)n2)Nc2ccc(cc2)C(=O)NCC1 [Example 6005] | 0.1 to 100 nM | – | –
28 | CC(C)(C)NC(=O)N1CCCOc2ccc(cc2)CNc2nc(nc(OCC(F)(F)F)n2)Nc2ccc(cc2)C(=O)NCC1 [Example 6001] | 0.1 to 100 nM | – | –
29 | O=C1CCNC(=O)c2ccc(cc2)Nc2nc(nc(OCC(F)(F)F)n2)NCc2ccc(cc2)OC/C=C/CS(=O)(=O)N1 [Example 3008] | – | 100 to 1000 nM | –
30 | O=C1NC(C2CCCNC2)C(=O)NCCCCCCOc2ccc(cc2)CNc2nc(nc(OCC(F)(F)F)n2)Nc2ccc1cc2 (stereo not shown) [Example 0011] | – | 0.1 to 100 nM | EC50 [4]: 62.8 nM
31 | O=C1N[C@H]2CNC[C@@H]2C(=O)NCCCCCCOc2ccc(cc2)CNc2nc(nc(OCC(F)(F)F)n2)Nc2ccc1cc2 [Example 0007] | – | 0.1 to 100 nM | EC50 [4]: 8.31 nM
32 | CCOC(=O)N1CCCOc2ccc(cc2)CNc2nc(nc(OCC(F)(F)F)n2)Nc2ccc(cc2)C(=O)NCC(C)(C)C1 [Example 6033] | 0.1 to 100 nM | – | –
33 | CC(C)OC(=O)N1CCCOc2ccc(cc2)CNc2nc(nc(OCC(F)(F)F)n2)Nc2ccc(cc2)C(=O)NCC1 [Example 6004] | 0.1 to 100 nM | – | –
34 | CC(C)(C)NC(=O)N1CCCNC(=O)c2ccc(cc2)Nc2nc(nc(OCC(F)(F)F)n2)NCc2ccc(cc2)OCCC1 [Example 6013] | 0.1 to 100 nM | – | –
35 | O=C1NCCCCCCCCCNC(=O)c2ccc(cc2)Nc2nc(nc(OCC(F)(F)F)n2)NCc2ccc1cc2 [Example 0037] | – | 100 to 1000 nM | –
36 | O=C1NCCCNCCCOc2ccc(cc2)C2(CC2)Nc2nc(nc(OCC(F)(F)F)n2)Nc2ccc1cc2 [Example 5001] | 0.1 to 100 nM | – | –
